Results from PubChem BioAssay AID1963864 (Molecular Pharmacology Branch, DTP, NCI, 2024).

Tested on: KRAS PDC multicell spheroid viability
Test: Anticancer human tumor 521955-158-R6-J3-PDC patient-derived pancreatic carcinoma cell line growth inhibition [KRAS2]
Conditions: for IC50: curve of first compound; for viability, T/C: stronger effect = lower value
In short: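 Combination screen of spheroid viability in tumor-cell co-cultures with endothelial (HUVEC) and mesenchymal stem cell stroma. Each agent was tested in half-log dilutions, topping at clinical Cmax or at 10 microM without a known Cmax.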

[1] = second compound 0.0316 µM, first compound 0.0316 µM
[2] = second compound 0.0316 µM, first compound 0.1 µM
[3] = second compound 0.0316 µM, first compound 0.316 µM
[4] = second compound 0.0316 µM, first compound 1 µM
[5] = second compound 0.0316 µM, first compound 3.16 µM
[6] = second compound 0.0316 µM, first compound 10 µM
[7] = second compound 0.1 µM, first compound 0.0316 µM
[8] = second compound 0.1 µM, first compound 0.1 µM
[9] = second compound 0.1 µM, first compound 0.316 µM
[10] = second compound 0.1 µM, first compound 1 µM
[11] = second compound 0.1 µM, first compound 3.16 µM
[12] = second compound 0.1 µM, first compound 10 µM
[13] = second compound 0.316 µM, first compound 0.0316 µM
[14] = second compound 0.316 µM, first compound 0.1 µM
[15] = second compound 0.316 µM, first compound 0.316 µM
[16] = second compound 0.316 µM, first compound 1 µM
[17] = second compound 0.316 µM, first compound 3.16 µM
[18] = second compound 0.316 µM, first compound 10 µM
[19] = second compound 1 µM, first compound 0.0316 µM
[20] = second compound 1 µM, first compound 0.1 µM
[21] = second compound 1 µM, first compound 0.316 µM
[22] = second compound 1 µM, first compound 1 µM
[23] = second compound 1 µM, first compound 3.16 µM
[24] = second compound 1 µM, first compound 10 µM
[25] = second compound 3.16 µM, first compound 0.0316 µM
[26] = second compound 3.16 µM, first compound 0.1 µM
[27] = second compound 3.16 µM, first compound 0.316 µM
[28] = second compound 3.16 µM, first compound 1 µM
[29] = second compound 3.16 µM, first compound 3.16 µM
[30] = second compound 3.16 µM, first compound 10 µM
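Further: drug exposure lasted seven days.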
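Wherever viability, T/C is given: 100% = DMSO vehicle wells and lower means fewer viable cells.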

COc1cc(Nc2ncc3c(n2)-c2ccc(Cl)cc2C(c2c(F)cccc2OC)=NC3)ccc1C(=O)O + C=CC(=O)N1CCN(c2nc(OCC3CCCN3C)nc3c2CCN(c2cccc4cccc(C)c24)C3)CC1CC#N gave an IC50 (second compound 0.0316 µM) of over 10 µM, an IC50 (second compound 0.1 µM) of over 10 µM and an IC50 (second compound 0.316 µM) of over 10 µM. It also gave an IC50 (second compound 1 µM) of over 10 µM, an IC50 (second compound 3.16 µM) of under 0.0316 µM and a viability, T/C [1] of 95.3%. For the same compound, the viability, T/C [2] was 86.4%, the viability, T/C [3] was 87.3% and the viability, T/C [4] was 88.1%. It also gave a viability, T/C [5] of 89.5%, a viability, T/C [6] of 83.6% and a viability, T/C [7] of 92.2%. For the same compound, the viability, T/C [8] was 91%, the viability, T/C [9] was 87.7% and the viability, T/C [10] was 91%. It also gave a viability, T/C [11] of 92%, a viability, T/C [12] of 97.9% and a viability, T/C [13] of 86.2%. It also gave a viability, T/C [14] of 87.4%, a viability, T/C [15] of 79.8% and a viability, T/C [16] of 78.1%. The viability, T/C [17] was 85.9%, the viability, T/C [18] was 86.4% and the viability, T/C [19] was 78%. It also gave a viability, T/C [20] of 66%, a viability, T/C [21] of 82.2% and a viability, T/C [22] of 76.1%. The viability, T/C [23] was 82.7%, the viability, T/C [24] was 77.3% and the viability, T/C [25] was 25.6%. For the same compound, the viability, T/C [26] was 25.7%, the viability, T/C [27] was 18.3% and the viability, T/C [28] was 53.4%. The viability, T/C [29] was 59.4% and the viability, T/C [30] was 29.2%.

For COc1cc2nccc(Oc3ccc(NC(=O)C4(C(=O)Nc5ccc(F)cc5)CC4)cc3)c2cc1OC + C=CC(=O)N1CCN(c2nc(OCC3CCCN3C)nc3c2CCN(c2cccc4cccc(C)c24)C3)CC1CC#N, the IC50 (second compound 0.0316 µM) was over 10 µM, the IC50 (second compound 0.1 µM) was over 10 µM and the IC50 (second compound 0.316 µM) was over 10 µM. For the same compound, the IC50 (second compound 1 µM) was over 10 µM, the IC50 (second compound 3.16 µM) was under 0.0316 µM and the viability, T/C [1] was 103%. The viability, T/C [2] was 111%, the viability, T/C [3] was 98.6% and the viability, T/C [4] was 107%. It also gave a viability, T/C [5] of 126%, a viability, T/C [6] of 128% and a viability, T/C [7] of 106%. It also gave a viability, T/C [8] of 102%, a viability, T/C [9] of 117% and a viability, T/C [10] of 116%. The viability, T/C [11] was 143%, the viability, T/C [12] was 133% and the viability, T/C [13] was 103%. The viability, T/C [14] was 99.3%, the viability, T/C [15] was 96.5% and the viability, T/C [16] was 109%. The viability, T/C [17] was 138%, the viability, T/C [18] was 140% and the viability, T/C [19] was 81.1%. It also gave a viability, T/C [20] of 80.8%, a viability, T/C [21] of 83.3% and a viability, T/C [22] of 82.3%. It also gave a viability, T/C [23] of 123%, a viability, T/C [24] of 111% and a viability, T/C [25] of 43.3%. The viability, T/C [26] was 44%, the viability, T/C [27] was 33.7% and the viability, T/C [28] was 15.4%. The viability, T/C [29] was 1.6% and the viability, T/C [30] was 17.8%.

For O=C(c1cc(Cc2n[nH]c(=O)c3ccccc23)ccc1F)N1CCN(C(=O)C2CC2)CC1 + C=CC(=O)N1CCN(c2nc(OCC3CCCN3C)nc3c2CCN(c2cccc4cccc(C)c24)C3)CC1CC#N, the IC50 (second compound 0.0316 µM) was over 10 µM, the IC50 (second compound 0.1 µM) was over 10 µM and the IC50 (second compound 0.316 µM) was over 10 µM. It also gave an IC50 (second compound 1 µM) of over 10 µM, an IC50 (second compound 3.16 µM) of under 0.0316 µM and a viability, T/C [1] of 90%. The viability, T/C [2] was 97%, the viability, T/C [3] was 96.7% and the viability, T/C [4] was 96.4%. The viability, T/C [5] was 89.4%, the viability, T/C [6] was 111% and the viability, T/C [7] was 97.9%. The viability, T/C [8] was 96.4%, the viability, T/C [9] was 97.5% and the viability, T/C [10] was 83.5%. For the same compound, the viability, T/C [11] was 87.5%, the viability, T/C [12] was 101% and the viability, T/C [13] was 97.5%. For the same compound, the viability, T/C [14] was 107%, the viability, T/C [15] was 103% and the viability, T/C [16] was 84.9%. It also gave a viability, T/C [17] of 87.3%, a viability, T/C [18] of 93.6% and a viability, T/C [19] of 89.9%. The viability, T/C [20] was 95.3%, the viability, T/C [21] was 79% and the viability, T/C [22] was 73.4%. The viability, T/C [23] was 86.2%, the viability, T/C [24] was 90.5% and the viability, T/C [25] was 42.9%. It also gave a viability, T/C [26] of 31.2%, a viability, T/C [27] of 24.1% and a viability, T/C [28] of 24.4%. For the same compound, the viability, T/C [29] was 39.9% and the viability, T/C [30] was 12.4%.
